Measurements published in US9174980B2, “Heterocyclic compounds as inhibitors of leukotriene production” (Boehringer Ingelheim International GmbH, priority 2012, dated 2015).

Key:
[1] = system: biomarkers for myocardial infarction risk; details: clinical trial; cited from earlier work
[2] = system: synthesis of LTB4 in human whole blood; assay: Human whole blood assay (calcimycin-stimulated LTB4 synthesis); assay type: cell-based; details: Homo sapiens; read-out: Human Whole Blood LTB4 Assay for FLAP (IC50 nM)
Outline: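 Steps: compound plus heparinized human whole blood, 15 min at 37° C; add calcimycin to 20 μM final; incubate another 30 min at 37° C; centrifuge at low speed and collect plasma; measure LTB4 with a homogeneous time-resolved fluorescence immunoassay.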

[3] = biological target: T1, recombinant human FLAP protein (Homo sapiens, UniProt P20292); assay: FLAP binding assay (Scintillation Proximity Assay, displacement of [125I]L-691,831); details: read-out: Human FLAP SPA Binding (IC50 nM)
T1 construct: made in house; host or cells: Sf9 insect cells (membrane fraction, 100,000 x g pellet)
T1 sequence (P20292 1-161): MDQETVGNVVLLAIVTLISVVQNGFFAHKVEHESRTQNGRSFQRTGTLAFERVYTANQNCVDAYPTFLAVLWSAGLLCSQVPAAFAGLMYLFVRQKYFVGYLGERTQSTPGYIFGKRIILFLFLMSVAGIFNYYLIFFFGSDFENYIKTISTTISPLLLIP
Outline: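 Membranes from sf9 cells expressing recombinant human FLAP (5 μg/well) on WGA SPA beads were incubated with compound and 0.08 nM [125I]L-691,831 in Tris pH 7.5 binding buffer, shaken 2 h. Displacement read by scintillation proximity; non-specific binding set with 10 μM unlabelled L-691,831.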

human glomerulonephritis = details: clinical trial; cited from earlier work
ApoE−/−xCD4dnTβRII mice = details: infusion, treated for four weeks; cited from earlier work
[4] = system: apoE/LDL-R double knockout mice; details: oral dosing, high-fat diet from 2 months of age to 6 months; cited from earlier work

Compound | IC50 [2] [nM] | IC50 [3] [nM] | further results
O=C(O)[C@@H](c1ccc(OCc2ccc3ccccc3n2)cc1)C1CCCC1 [DG-031] | – | – | effect on biomarkers for myocardial infarction risk [1]: dose-dependent suppression of several biomarkers
CN(C)CCn1cc(-c2cc(C(C)(c3ccc(-c4cnc(N)nc4)cc3)C3CC3)no2)cn1 (stereo not drawn) [Example 187, 5-{4-[1-cyclopropyl-1-(5-{1-[2-(dimethylamino)ethyl]-1H-pyrazol-4-yl}-1,2-oxazol-3-yl)ethyl]phenyl}pyrimidin-2-amine] | 67 | 9.9 | –
Cn1cc(-c2c(C3(c4ccc(-c5cnc(N)nc5)cc4)CCC3)c3ccccc3n2C(=O)OC(C)(C)C)cn1 [Example 188, tert-butyl 3-{1-[4-(2-aminopyrimidin-5-yl)phenyl]cyclobutyl}-2-(1-methyl-1H-pyrazol-4-yl)-1H-indole-1-carboxylate] | > 5000 | 270 | –
Cn1cc(-c2[nH]c3ccccc3c2C2(c3ccc(-c4cnc(N)nc4)cc3)CCC2)cn1 [Example 189] | 280 | 5.3 | –
Cn1cc(-c2cnc(C3(c4ccc(-c5cnc(N)nc5)cc4)CCC3)s2)cn1 [Example 190, 5-(4-{1-[5-(1-methyl-1H-pyrazol-4-yl)-1,3-thiazol-2-yl]cyclobutyl}phenyl)pyrimidin-2-amine] | 80 | 4.9 | –
CC(C)[C@](C)(c1ccc(-c2cnc(N)nc2)nc1)c1cc(-c2cnn(C)c2)on1 [Example 191, 5-(5-{(2R)-3-methyl-2-[5-(1-methyl-1H-pyrazol-4-yl)-1,2-oxazol-3-yl]butan-2-yl}pyridin-2-yl)pyrimidin-2-amine] | 56 | 7.5 | –
CC(C)[C@@](C)(c1ccc(-c2cnc(N)nc2)nc1)c1cc(-c2cnn(C)c2)on1 [Example 192, 5-(5-{(2S)-3-methyl-2-[5-(1-methyl-1H-pyrazol-4-yl)-1,2-oxazol-3-yl]butan-2-yl}pyridin-2-yl)pyrimidin-2-amine] | 1900 | 210 | –
COCCNC(=O)c1[nH]c2ccccc2c1C1(c2ccc(-c3cnc(N)nc3)cc2)CCC1 [Example 193] | 450 | 7.9 | –
CN(C)C(=O)Cn1cc(-c2coc(C(C)(c3ccc(-c4cnc(N)nc4)cc3)C3CC3)n2)cn1 (stereo not drawn) [Example 194, 2-[4-(2-{1-[4-(2-aminopyrimidin-5-yl)phenyl]-1-cyclopropylethyl}-1,3-oxazol-4-yl)-1H-pyrazol-1-yl]-N-dimethylacetamide] | 560 | 40 | –
CN(C)C(=O)Cn1cc(-c2coc([C@@](C)(c3ccc(-c4cnc(N)nc4)cc3)C3CC3)n2)cn1 [Example 195, 2-[4-(2-{(1R)-1-[4-(2-aminopyrimidin-5-yl)phenyl]-1-cyclopropylethyl}-1,3-oxazol-4-yl)-1H-pyrazol-1-yl]-N,N-dimethylacetamide] | 280 | 18 | –
CN(C)C(=O)Cn1cc(-c2coc([C@](C)(c3ccc(-c4cnc(N)nc4)cc3)C3CC3)n2)cn1 [Example 196, 2-[4-(2-{(1S)-1-[4-(2-aminopyrimidin-5-yl)phenyl]-1-cyclopropylethyl}-1,3-oxazol-4-yl)-1H-pyrazol-1-yl]-N,N-dimethylacetamide] | 2000 | 380 | –
CN(C)C(=O)Cn1cc(-c2cc([C@@](C)(c3ccc(-c4cnc(N)nc4)cc3)C3CC3)no2)cn1 [Example 197, 2-[4-(3-{(1R)-1-[4-(2-aminopyrimidin-5-yl)phenyl]-1-cyclopropylethyl}-1,2-oxazol-5-yl)-1H-pyrazol-1-yl]-N,N-dimethylacetamide] | 93 | 5.3 | –
CN(C)C(=O)Cn1cc(-c2cc([C@](C)(c3ccc(-c4cnc(N)nc4)cc3)C3CC3)no2)cn1 [Example 198, 2-[4-(3-{(1S)-1-[4-(2-aminopyrimidin-5-yl)phenyl]-1-cyclopropylethyl}-1,2-oxazol-5-yl)-1H-pyrazol-1-yl]-N,N-dimethylacetamide] | 1600 | 350 | –
Cn1cc(-c2cc(C(C)(c3ccc(-c4cnc(N)nc4)nc3)C3CC3)no2)cn1 (stereo not drawn) [Example 199, 5-(5-{1-Cyclopropyl-1-[5-(1-methyl-1H-pyrazol-4-yl)-isoxazol-3-yl]-ethyl}-pyridin-2-yl)-pyrimidin-2-ylamine] | 590 | 230 | –
Cn1cc(-c2cc([C@@](C)(c3ccc(-c4cnc(N)nc4)nc3)C3CC3)no2)cn1 [Example 200] | 450 | 140 | –
Cn1cc(-c2cc([C@](C)(c3ccc(-c4cnc(N)nc4)nc3)C3CC3)no2)cn1 [Example 201, 5-(5-{(S)-1-Cyclopropyl-1-[5-(1-methyl-1H-pyrazol-4-yl)-isoxazol-3-yl]-ethyl}-pyridin-2-yl)-pyrimidin-2-ylamine] | 3500 | > 2000 | –
CC(C)(O)Cn1cc(-c2coc(C(C)(c3ccc(-c4cnc(N)nc4)cc3)C3CC3)n2)cn1 (stereo not drawn) [Example 202, 1-[4-(2-{1-[4-(2-Amino-pyrimidin-5-yl)-phenyl]-1-cyclopropyl-ethyl}-oxazol-4-yl)-pyrazol-1-yl]-2-methyl-propan-2-ol] | 230 | 69 | –
CC(C)(C)Sc1c(CC(C)(C)C(=O)O)n(Cc2ccc(Cl)cc2)c2ccc(OCc3ccc4ccccc4n3)cc12 [MK-591] | – | – | effect on proteinuria (human glomerulonephritis): reduce proteinuria
CC(C)c1ccc2c(c1)c(SC(C)(C)C)c(CC(C)(C)C(=O)O)n2Cc1ccc(Cl)cc1 [MK-886] | – | – | decrease in plaque area in the aortic root (ApoE−/−xCD4dnTβRII mice): ~40%; decrease in plaque coverage in the aorta [4]: 56%; decrease in plaque coverage in the aortic root [4]: 43%

Continued, in another order:

IC50 [2] [nM] | IC50 [3] [nM] | Compound | further results
190 | 36 | CC(C)(O)Cn1cc(-c2coc([C@@](C)(c3ccc(-c4cnc(N)nc4)cc3)C3CC3)n2)cn1 [Example 203, 1-[4-(2-{(R)-1-[4-(2-Amino-pyrimidin-5-yl)-phenyl]-1-cyclopropyl-ethyl}-oxazol-4-yl)-pyrazol-1-yl]-2-methyl-propan-2-ol] | –
1500 | 560 | CC(C)(O)Cn1cc(-c2coc([C@](C)(c3ccc(-c4cnc(N)nc4)cc3)C3CC3)n2)cn1 [Example 204, 1-[4-(2-{(S)-1-[4-(2-Amino-pyrimidin-5-yl)-phenyl]-1-cyclopropyl-ethyl}-oxazol-4-yl)-pyrazol-1-yl]-2-methyl-propan-2-ol] | –
1600 | 1500 | CN(C)C(=O)Cn1cc(-c2coc(C(C)(c3ccc(-c4cnc(N)nc4)nc3)C3CC3)n2)cn1 (stereo not drawn) [Example 205, 2-[4-(2-{1-[6-(2-Amino-pyrimidin-5-yl)-pyridin-3-yl]-1-cyclopropyl-ethyl}-oxazol-4-yl)-pyrazol-1-yl]-N,N-dimethyl-acetamide] | –
930 | 180 | Cn1cc(-c2coc(C(C)(c3ccc(-c4cnc(N)nc4)nc3)C3CC3)n2)cn1 (stereo not drawn) [Example 206, 5-(5-{1-Cyclopropyl-1-[4-(1-methyl-1H-pyrazol-4-yl)-oxazol-2-yl]-ethyl}-pyridin-2-yl)-pyrimidin-2-ylamine] | –
220 | 110 | Cn1cc(-c2coc([C@@](C)(c3ccc(-c4cnc(N)nc4)nc3)C3CC3)n2)cn1 [Example 207, 5-(5-{(R)-1-Cyclopropyl-1-[4-(1-methyl-1H-pyrazol-4-yl)-oxazol-2-yl]-ethyl}-pyridin-2-yl)-pyrimidin-2-ylamine] | –
1300 | > 2000 | Cn1cc(-c2coc([C@](C)(c3ccc(-c4cnc(N)nc4)nc3)C3CC3)n2)cn1 [Example 208, 5-(5-{(S)-1-Cyclopropyl-1-[4-(1-methyl-1H-pyrazol-4-yl)-oxazol-2-yl]-ethyl}-pyridin-2-yl)-pyrimidin-2-ylamine] | –
560 | 300 | CC(C)(O)Cn1cc(-c2coc(C(C)(c3ccc(-c4cnc(N)nc4)nc3)C3CC3)n2)cn1 (stereo not drawn) [Example 209, 1-[4-(2-{1-[6-(2-Amino-pyrimidin-5-yl)-pyridin-3-yl]-1-cyclopropyl-ethyl}-oxazol-4-yl)-pyrazol-1-yl]-2-methyl-propan-2-ol] | –
530 | 180 | CC(C)(O)Cn1cc(-c2coc([C@@](C)(c3ccc(-c4cnc(N)nc4)nc3)C3CC3)n2)cn1 [Example 210, 1-[4-(2-{(R)-1-[6-(2-Amino-pyrimidin-5-yl)-pyridin-3-yl]-1-cyclopropyl-ethyl}-oxazol-4-yl)-pyrazol-1-yl]-2-methyl-propan-2-ol] | –
> 5000 | > 2000 | CC(C)(O)Cn1cc(-c2coc([C@](C)(c3ccc(-c4cnc(N)nc4)nc3)C3CC3)n2)cn1 [Example 211, 1-[4-(2-{(S)-1-[6-(2-Amino-pyrimidin-5-yl)-pyridin-3-yl]-1-cyclopropyl-ethyl}-oxazol-4-yl)-pyrazol-1-yl]-2-methyl-propan-2-ol] | –
410 | 130 | CC(C)(O)Cn1cc(-c2cnc(C(C)(c3ccc(-c4cnc(N)nc4)nc3)C3CC3)s2)cn1 (stereo not drawn) [Example 212, 1-[4-(2-{1-[6-(2-Amino-pyrimidin-5-yl)-pyridin-3-yl]-1-cyclopropyl-ethyl}-thiazol-5-yl)-pyrazol-1-yl]-2-methyl-propan-2-ol] | –
